Results taken from US10149477B2, “Substituted pyrimidinium compounds for combating animal pests” (BASF SE, priority 2014, dated 2018).

Assays:
Type in all cases: in vivo
[1] = system: green peach aphid (Myzus persicae); assay: Green peach aphid, systemic, artificial diet in 96-well microtiter plates; conditions: 72 h, 3 days, read-out: mortality in comparison with untreated controls
Description: a) For evaluating control of green peach aphid (Myzus persicae) through systemic means the test unit consisted of 96-well-microtiter plates containing liquid artificial diet under an artificial membrane.
The compounds were formulated using a solution containing 75% v/v water and 25% v/v DMSO. Different concentrations of formulated compounds were pipetted into the aphid diet, using a custom built pipetter, at two replications.
After application, 5-8 adult aphids were placed on the artificial membrane inside the microtiter plate wells. The aphids were then allowed to suck on the treated aphid diet and incubated at about 23±1° C. and about 50±5% relative humidity for 3 days. Aphid mortality and fecundity was then visually assessed.

[2] = system: Orchid Thrips (Dichromothrips corbetti); assay: Orchid thrips, floral-immersion technique; conditions: dipped orchid flowers, 72 hours after treatment, read-out: mortality in comparison with untreated controls
Description: Dichromothrips corbetti adults used for bioassay were obtained from a colony maintained continuously under laboratory conditions. For testing purposes, the test compound is diluted in a 1:1 mixture of acetone:water (vol:vol), plus 0.01% vol/vol Alkamuls® EL 620 surfactant.
Thrips potency of each compound was evaluated by using a floral-immersion technique. Plastic petri dishes were used as test arenas. All petals of individual, intact orchid flowers were dipped into treatment solution and allowed to dry. Treated flowers were placed into individual petri dishes along with about 20 adult thrips. The petri dishes were then covered with lids. All test arenas were held under continuous light and a temperature of about 28° C. for duration of the assay. After 3 days, the numbers of live thrips were counted on each flower, and along inner walls of each petri dish. The percent mortality was recorded 72 hours after treatment.

[3] = system: Rice Brown Plant Hopper (Nilaparvata lugens); assay: Rice brown plant hopper, sprayed rice seedlings; conditions: after 72 hours, read-out: mortality in comparison with untreated controls
Description: (§1) Rice seedlings were cleaned and washed 24 hours before spraying. The active compounds were formulated in 50:50 acetone:water (vol:vol) and 0.1% vol/vol surfactant (EL 620) was added. Potted rice seedlings were sprayed with 5 ml test solution, air dried, placed in cages and inoculated with 10 adults. Treated rice plants were kept at about 28-29° C. and relative humidity of about 50-60%. Percent mortality was recorded after 72 hours.

[4] = system: Cotton Aphid (Aphis gossypii); assay: Cotton aphid, spray on infested cotton plants; conditions: 120 h, sprayed cotton plants, after 5 days, read-out: mortality in comparison with untreated controls
Description: (§2) The active compounds were formulated by a Tecan liquid handler in 100% cyclohexa-none as a 10,000 ppm solution supplied in tubes. The 10,000 ppm solution was serially diluted in 100% cyclohexanone to make interim solutions. These served as stock solu-tions for which final dilutions were made by the Tecan in 50% acetone:50% water (v/v) into 10 or 20 ml glass vials. A nonionic surfactant (Kinetic®) was included in the solution at a volume of 0.01% (v/v).
(§3) The vials were then inserted into an automated electrostatic sprayer equipped with an atomizing nozzle for application to plants/insects.
Cotton plants at the cotyledon stage were infested with aphids prior to treatment by placing a heavily infested leaf from the main aphid colony on top of each cotyledon. Aphids were allowed to transfer overnight to accomplish an infestation of 80-100 aphids per plant and the host leaf was removed. The infested plants were then sprayed by an automated electrostatic plant sprayer equipped with an atomizing spray nozzle. The plants were dried in the sprayer fume hood, removed from the sprayer, and then main-tained in a growth room under fluorescent lighting in a 24-hr photoperiod at 25° C. and 20-40% relative humidity. Aphid mortality on the treated plants, relative to mortality on untreated control plants, was determined after 5 days.

[5] = system: green peach aphid (Myzus persicae); assay: Green peach aphid, spray on infested bell pepper plants; conditions: 120 h, sprayed bell pepper plants, after 5 days, read-out: mortality in comparison with untreated controls
Description: as §2, with “b) The active” for “The active”
as §3
Bell pepper plants at the first true-leaf stage were infested prior to treatment by placing heavily infested leaves from the main colony on top of the treatment plants. Aphids were allowed to transfer overnight to accomplish an infestation of 30-50 aphids per plant and the host leaves were removed. The infested plants were then sprayed by an automated electrostatic plant sprayer equipped with an atomizing spray nozzle. The plants were dried in the sprayer fume hood, removed, and then maintained in a growth room under fluorescent lighting in a 24-hr photoperiod at about 25° C. and about 20-40% relative humidity. Aphid mortality on the treated plants, relative to mortality on untreated control plants, was determined after 5 days.

[6] = system: Cowpea Aphid (Aphis craccivora); assay: Cowpea aphid, spray on colonized cowpea plants; conditions: sprayed cowpea plants, after 72 hours, read-out: mortality in comparison with untreated controls
Description: The active compound is dissolved at the desired concentration in a mixture of 1:1 (vol:vol) distilled water: acetone. Surfactant (Kinetic® HV) is added at a rate of 0.01% (vol/vol). The test solution is prepared at the day of use.
Potted cowpea plants were colonized with approximately 30-50 aphids of various stages by manually transferring a leaf tissue cut from infested plant 24 hours before application. Plants were sprayed with the test solutions using a DeVilbiss® hand atom-izer at 20-30 psi (=1.38 to 2.07 bar) after the pest population has been checked. Treat-ed plants are maintained on light carts at about 25-26° C. Percent mortality was assessed after 72 hours.

[7] = system: Rice Green Leafhopper (Nephotettix virescens); assay: Rice green leafhopper, sprayed rice seedlings; conditions: after 72 hours, read-out: mortality in comparison with untreated controls
Description: as §1, with “(vol:vol),” for “(vol:vol)”

[8] = system: vetch aphid (Megoura viciae); assay: Vetch aphid, broad bean leaf disks in 24-well microtiter plates; conditions: foliar, 120 h, sprayed leaf disks, 5 days, read-out: mortality in comparison with untreated controls
Description: For evaluating control of vetch aphid (Megoura viciae) through contact or systemic means the test unit consisted of 24-well-microtiter plates containing broad bean leaf disks.
The compounds were formulated using a solution containing 75% v/v water and 25% v/v DMSO. Different concentrations of formulated compounds were sprayed onto the leaf disks at 2.5 μl, using a custom built micro atomizer, at two replications.
After application, the leaf disks were air-dried and 5-8 adult aphids placed on the leaf disks inside the microtiter plate wells. The aphids were then allowed to suck on the treated leaf disks and incubated at about 23+1° C. and about 50+5% relative humidity for 5 days. Aphid mortality and fecundity was then visually assessed.

C[n+]1c([O-])c(-c2ccccc2)c(=O)n2c1SC(c1cnc(Cl)s1)C2 (centres unmarked) [compound 1]
> 75%: mortality at 2500 ppm [1] | mortality at 500 ppm [2] | mortality at 500 ppm [3] | mortality at 300 ppm [4] | mortality at 2500 ppm [5] | mortality at 500 ppm [6] | mortality at 500 ppm [7] | mortality at 2500 ppm [8]
